Laboratory results taken from US20050282755A1, “Compositions having antimicrobial activity and uses thereof” (priority 2004, published 2005).
In brackets after ≈: the same amount, converted by molar mass. Read-outs that look alike come from different tables or passages of the source. Non-standard residues stand in square brackets, D forms with d. Residues, ends and D or L forms follow the SMILES beside them. *: point of attachment. Lauroyl = CCCCCCCCCCCC(=O)*; dOrn = NCCC[C@@H](N)C(=O)O

Tests used:
[1] = tested on: P. acnes; assay: Mouse skin assay, bactericidal activity on excised Balb/c skin; assay type: cell-based, Propionibacterium acnes; details: Incubation time 120 min; P. acnes untreated 0.9 × 10^8 cfu/ml
[2] = tested on: Staphylococcus aureus ATCC 29213; assay: MIC, NCCLS M7-A6 broth microdilution, cation-adjusted Mueller Hinton broth (Table 9, no superscript); assay type: cell-based; details: ATCC 29213
Summary of the method: (§1)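 Log-phase bacteria were added to wells containing peptide in cation-adjusted Mueller Hinton broth at a final 5×10^5 to 1×10^6 CFU/milliliter. Plates then sat overnight at 37° C. Wells were scored visually for turbidity against a peptide-free control.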

[3] = tested on: Salmonella dublin (Lane); assay: MIC, NCCLS M7-A6 broth microdilution (Table 9, no superscript); assay type: cell-based
Summary of the method: as §1

[4] = tested on: Propionibacterium acnes ATCC 6919; assay type: cell-based
Summary of the method: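 MIC by non-standard broth microdilution in reinforced Clostridial broth, log-phase P. acnes inoculum at 5×10^5 to 1×10^6 CFU/mL. Plates were held anaerobically 48–72 h at 37° C; MIC was the lowest peptide concentration with no visible turbidity relative to the no-peptide control.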

[5] = tested on: S. aureus (Rosenbach); assay: Broth microdilution assay for MIC (20% TSB, 50 mM Na2CO3, 1 mM MgCl2), Table 4A; assay type: cell-based, Staphylococcus aureus; details: 3 log or greater reduction in bacterial growth over 16 hours
Method: (§2) S. dublin (Lane), S. aureus (Rosenbach), P. acnes, ATCC 6919, E. coli K12 TOP10, and E. coli K12 55099 (protease neg.) bacterial strains were tested in the microbial inhibition assays described hereafter. The S. dublin (Lane), and S. aureus (Rosenbach) strains are available from ATCC (Staphylococcus aureus subsp. aureus Rosenbach (Number: 13150) and Salmonella choleraesuis serotype dublin (Number: 39184)). The strain of P. acnes was purchased from ATCC (strain #6919) (Manassas, Va.). The E. coli K12 strains TOP 10 and 55099 were purchased from Invitrogen (Carlsbad, Calif.) and ATCC respectively. HeLa cells were purchased from ATCC (CCL2). Tryptic soy broth (TSB), Brucella broth, reinforced Clostridial broth and agar were purchased from Becton & Dickinson (distributed by VWR, West Chester, Pa.). All plastic consumables were purchased from VWR (West Chester, Pa.). […]
(§3) The minimum inhibitory concentration (MIC) of peptide compositions for S. aureus, S. dublin and E. coli was determined in a broth microdilution assay. […] The MIC for each peptide for each microorganism was determined by three methods. The growth of bacteria was directly determined by measuring the absorption at 600 nm using a Versamax microplate reader (Molecular Devices). […] After incubation for 16 hours at 37° C. bacterial growth was evaluated and documented (Alpha Innotech gel documentation system).

[6] = tested on: S. dublin (Lane); assay: Broth microdilution assay for MIC, Table 4A; assay type: cell-based, Salmonella dublin; details: 3 log or greater reduction in bacterial growth over 16 hours
Method: as §2, §3

[7] = tested on: human red blood cells; assay type: cell-based; details: red cells of human
Method: Hemoglobin-release assays with human red blood cells (RBC) were performed to determine the hemolytic activity of granulysin peptides. Human RBCs (San Diego Blood Bank, San Diego, Calif.) were washed three times in PBS buffer (8 mM Na2HPO4, 1.5 mM KH2PO4, 140 mM NaCl and 2.7 mM KCl, pH 7.4), resuspended in PBS to the concentration of 5% (v/v). The RBC were then exposed to different peptide compositions at various concentrations (100-6.25 micromolar) and incubated at 37° C. for 60 minutes in a total volume of 120 microliters. Every experiment included a negative control without peptide and maximum control treated with 5% TX-100 for complete hemoglobin release. Samples were centrifuged for 1 minute at 13,000 g to remove debris and intact cells. The hemoglobin-containing supernatant was removed and transferred to a microwell plate. Hemoglobin release was quantified at A540 using a Versamax plate reader (Molecular Devices). The degree of hemolysis is expressed as percentage of hemolysis compared to the […], using the following formula: % hemolysis=(sample−neg. control)/(max. control−neg. control)×100.

[8] = tested on: Escherichia coli ATCC 25922; assay: MIC, NCCLS M7-A6 broth microdilution (Table 9, no superscript); assay type: cell-based; details: ATCC 25922
Summary of the method: as §1

[9] = tested on: Pseudomonas aeruginosa ATCC 27853; assay: as above; assay type: cell-based; details: ATCC 27853
Summary of the method: as §1

[10] = tested on: Staphylococcus epidermidis ATCC 12228; assay: as above; assay type: cell-based; details: ATCC 12228
Summary of the method: as §1

[11] = tested on: Propionibacterium acnes ATCC 6919; assay: MIC, agar dilution method NCCLS M11-A6, Brucella agar, anaerobic (Table 9, superscript c); assay type: cell-based; details: letter c: agar dilution NCCLS M11-A6, Brucella agar, anaerobic
Summary of the method: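 MIC taken as the lowest peptide level giving no colonies on the plate. Plates were inoculated to 1.5×10^8 CFU/milliliter, then kept anaerobically at 37° C. for 48-96 hours; method follows NCCLS M11-A6.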

[12] = tested on: Candida albicans ATCC 18804; assay: MIC in yeasts, NCCLS M27-A2 broth microdilution, RPMI 1640 (Table 9, letter e); assay type: cell-based; details: ATCC 18804
Summary of the method: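 Plates incubated 24 to 48 hours at 37° C, with yeast seeded at 0.5×10^3–2.5×10^3 CFU/milliliter final in RPMI 1640 (glutamine, phenol red indicator). MIC was read as the lowest peptide concentration showing no visible growth.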

[13] = tested on: E. coli K12 TOP10; details: 3 log or greater reduction in bacterial growth over 16 hours
[14] = tested on: E. coli K12 55099 (protease neg.); details: 3 log or greater reduction in bacterial growth over 16 hours
[15] = tested on: Pseudomonas aeruginosa ATCC 27853; details: ATCC 27853, pH 7.4
[16] = tested on: Staphylococcus epidermidis ATCC 12228; details: ATCC 12228, pH 7.4

SMILES | P. acnes recovered from mouse skin [1] | MIC S. aureus [2] [mg/L] | MIC S. dublin [3] [mg/L] | MIC P. acnes [4] [µg·days/mL] | Minimum inhibitory concentration (MIC) S. aureus [5] [µM] | Minimum inhibitory concentration (MIC) S. dublin [6] [µM] | Hemolytic effect on human red blood cells ([7]; 6.25 Micromolar) [%] | Hemolytic effect on human red blood cells ([7]; 12.5 Micromolar) [%] | Hemolytic effect on human red blood cells ([7]; 25 Micromolar) [%] | Hemolytic effect on human red blood cells ([7]; 50 Micromolar) [%] | Hemolytic effect on human red blood cells ([7]; 100 Micromolar) [%] | MIC E. coli [8] [mg/L] | MIC P. aeruginosa [9] [mg/L] | MIC S. epidermidis [10] [mg/L] | MIC P. acnes [11] [c ug/mL] | MIC C. albicans [12] [e ug/mL] | Minimum inhibitory concentration (MIC) E. coli Top10 [13] [µM] | Minimum inhibitory concentration (MIC) E. coli 55099 [14] [µM] | MIC P. aeruginosa [15] [b ug/mL] | MIC S. epidermidis [16] [b ug/mL]
CSCC[C@@H](NC(=O)[C@@H](Cc1ccccc1)NC(=O)[C@@H](CC(N)=O)NC(=O)[C@@H](CCCNC(=N)N)NC(=O)[C@@H](CO)NC(=O)[C@@H](Cc1c[nH]c2ccccc12)NC(=O)[C@@H](CC(=O)O)NC(=O)[C@@H](CCCNC(=N)N)NC(=O)[C@@H](Cc1c[nH]c2ccccc12)NC(=O)[C@@H](CCCNC(=N)N)NC(=O)[C@@H](CO)NC(=O)[C@@H](CCCNC(=N)N)NC(=O)CNC(=O)[C@H](NC(=O)[C@@H](CCCNC(=N)N)NC(=O)[C@@H](CO)NC(=O)[C@H](NC(=O)[C@@H](CCCNC(=N)N)NC(=O)[C@H](NC(C)=O)[C@H](C)O)C(C)C)[C@H](C)O)C(=O)N[C@H](CCCNC(=N)N)C(=O)N[C@H](CCCN)C(=O)N[C@H](CCCN)C(=O)N[C@H](CCCN)C(=O)N[C@H](CCCN)C(=O)N[C@H](CCCN)C(=O)N[C@H](CCCN)C(=O)N[C@H](CCCN)C(=O)N[C@H](CCCN)C(N)=O [Peptide 35, Ac-trvsrtgrsrwrdwsrnfmroooooooo-NH2] (Ac-[dT][dR][dV][dS][dR][dT]G[dR][dS][dR][dW][dR][dD][dW][dS][dR][dN][dF][dM][dR][dOrn][dOrn][dOrn][dOrn][dOrn][dOrn][dOrn][dOrn]-NH2) | 4.5 × 10^4 cfu/ml | >64 | >64 | 6 |  |  |  |  |  |  |  |  |  |  |  |  |  |  |  | 
CCCCCCCCCCCC(=O)N[C@H](C(=O)N[C@@H](CCCNC(=N)N)C(=O)N[C@H](C(=O)N[C@@H](CO)C(=O)N[C@@H](CCCNC(=N)N)C(=O)N[C@H](C(=O)NCC(=O)N[C@@H](CCCNC(=N)N)C(=O)N[C@@H](CO)C(=O)N[C@@H](CCCNC(=N)N)C(=O)N[C@@H](Cc1c[nH]c2ccccc12)C(=O)N[C@@H](CCCNC(=N)N)C(=O)N[C@@H](CC(=O)O)C(=O)N[C@@H](Cc1c[nH]c2ccccc12)C(=O)N[C@@H](CO)C(=O)N[C@@H](CCCNC(=N)N)C(=O)N[C@@H](CC(N)=O)C(=O)N[C@@H](Cc1ccccc1)C(=O)N[C@@H](CCSC)C(=O)N[C@@H](CCCNC(=N)N)C(=O)N[C@@H](CCCCN)C(N)=O)[C@@H](C)O)C(C)C)[C@@H](C)O [Peptide 64] (Lauroyl-TRVSRTGRSRWRDWSRNFMRK-NH2) |  | 8 (≈ 2.74 µM) | 16 (≈ 5.48 µM) |  | 2 (≈ 5.84 µg/mL) | 8 (≈ 23.4 µg/mL) | 14 | 15 | 29 | 46 | 81 | 64 (≈ 21.9 µM) | >64 | 1 (≈ 0.342 µM) | >64 | 32 | 2 (≈ 5.84 µg/mL) | 1 (≈ 2.92 µg/mL) |  | 
CSCC[C@@H](NC(=O)[C@@H](Cc1ccccc1)NC(=O)[C@@H](CC(N)=O)NC(=O)[C@@H](CCCNC(=N)N)NC(=O)[C@@H](C)NC(=O)[C@H](NC(=O)[C@@H](CC(=O)O)NC(=O)[C@@H](CCCNC(=N)N)NC(=O)[C@@H](Cc1c[nH]c2ccccc12)NC(=O)[C@@H](CCCNC(=N)N)NC(=O)[C@@H](CO)NC(=O)[C@@H](CCCNC(=N)N)NC(C)=O)C(C)C)C(=O)N[C@H](CCCNC(=N)N)C(N)=O [Peptide 96, Ac-rsrwrdvarnfmr-NH2] (Ac-[dR][dS][dR][dW][dR][dD][dV][dA][dR][dN][dF][dM][dR]-NH2) |  | >64 | >64 | 12.5 |  |  |  |  |  |  |  |  |  |  |  | 8 |  |  | 50 | 12.5
